Laboratory results as given in ChEMBL document CHEMBL1201862, “PubChem BioAssay data set” (2004).
Activity calls are given as the source filed them.

What was measured:
[1] = target: Cytochrome P450 2C19 (Homo sapiens, UniProt P33261); assay: Cytochrome panel assay with activity outcomes. Panel member name: p450-cyp2c19 Compounds with AC50 equal or less than 10 uM are considered active; assay type: functional
[2] = target: Cytochrome P450 2D6 (Homo sapiens, UniProt P10635);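 further: CYP2D6 member of a cytochrome P450 panel assay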
[3] = target: Dual specificity protein phosphatase 3 (Homo sapiens, UniProt P51452); assay: SAR VHR1 Fluorescent Assay for In Vitro dose response studies Set 3. [Related pubchem assays (depositor defined):AID1654, AID1661, AID1878]; assay type: functional
[4] = target: Hexokinase-1 (Homo sapiens, UniProt P19367); assay: hexokinase 1 activity inhibitors, potency – biochemical, set 2, resazurin fluorescence coupled readout, selectivity assay for HKDC1 inhibitor project, SAR follow-up (AID 588356); assay type: functional
[5] = target: T1, Hexokinase HKDC1 (Homo sapiens, UniProt Q2TB90); assay: analog inhibition of human HKDC1 activity – biochemical, set 2, SAR follow-up (AID 588355); assay type: functional
T1 sequence (Q2TB90 whole entry): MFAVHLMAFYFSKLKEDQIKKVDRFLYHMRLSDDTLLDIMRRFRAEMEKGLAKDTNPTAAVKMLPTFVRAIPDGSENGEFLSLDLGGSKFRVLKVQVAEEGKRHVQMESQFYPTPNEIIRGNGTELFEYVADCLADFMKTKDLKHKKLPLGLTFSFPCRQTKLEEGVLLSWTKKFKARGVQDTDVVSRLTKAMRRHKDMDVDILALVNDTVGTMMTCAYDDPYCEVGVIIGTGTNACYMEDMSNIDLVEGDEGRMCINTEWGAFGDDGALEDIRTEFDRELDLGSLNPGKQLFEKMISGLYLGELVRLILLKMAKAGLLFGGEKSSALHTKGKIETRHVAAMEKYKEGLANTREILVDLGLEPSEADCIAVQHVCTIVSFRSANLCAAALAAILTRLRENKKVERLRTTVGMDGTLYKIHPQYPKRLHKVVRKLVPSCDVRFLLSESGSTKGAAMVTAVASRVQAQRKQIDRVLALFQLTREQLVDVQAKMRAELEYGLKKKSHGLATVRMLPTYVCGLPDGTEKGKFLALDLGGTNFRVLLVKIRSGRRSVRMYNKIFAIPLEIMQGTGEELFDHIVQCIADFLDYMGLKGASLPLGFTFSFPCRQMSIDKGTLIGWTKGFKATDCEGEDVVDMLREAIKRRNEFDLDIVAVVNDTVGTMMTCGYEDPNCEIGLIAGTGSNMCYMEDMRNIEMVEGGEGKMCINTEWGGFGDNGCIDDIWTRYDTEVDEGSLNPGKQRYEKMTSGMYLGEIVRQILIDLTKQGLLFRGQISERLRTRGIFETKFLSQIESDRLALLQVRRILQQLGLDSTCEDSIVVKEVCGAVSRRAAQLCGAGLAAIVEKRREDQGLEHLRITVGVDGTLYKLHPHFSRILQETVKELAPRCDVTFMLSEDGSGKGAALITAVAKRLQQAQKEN

[6] = test system: INS1; assay: beta-cell survival under cytokine stress – INS-1E, ATP luminescence, dry powder, dose response (AID 488844); assay type: functional, cell-based; details: Rattus norvegicus
[7] = target: T2, Polyadenylate-binding protein 1 (Homo sapiens, UniProt P11940); assay: MLLE domain peptide-binding blockers, IC50 – biochemical, fluorescence polarization, FITC-PAM2 peptide, dose response (AID 602259); assay type: functional; details: read-out: IC50_Mean
[8] = target: DNA dC->dU-editing enzyme APOBEC-3A (Homo sapiens, UniProt P31941); assay: A3A deaminase inhibition for selectivity – biochemical, dose response (AID 504722); assay type: functional
[9] = viability of HCT116 lacking mutant beta-catenin – cell-based, human colon tumor, dose response (AID 1045); assay type: functional;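 further: HCT116 colon tumor cells with beta catenin knocked out; cells exposed to compound for 60 hours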
[10] = target: Heat shock protein HSP 90-alpha (Homo sapiens, UniProt P07900); assay type: functional, organism-based
[11] = target: T3, Mannose-6-phosphate isomerase (Homo sapiens, UniProt P34949); assay: Confirmation of compounds inhibiting phosphomannose isomerase (PMI) via a fluorescence intensity assay using a high concentration of mannose 6-phosphate. [Related pubchem assays (depositor defined):AID1209, AID1220, AID1545, AID1553, AID1620]
T3 sequence (P34949 whole entry): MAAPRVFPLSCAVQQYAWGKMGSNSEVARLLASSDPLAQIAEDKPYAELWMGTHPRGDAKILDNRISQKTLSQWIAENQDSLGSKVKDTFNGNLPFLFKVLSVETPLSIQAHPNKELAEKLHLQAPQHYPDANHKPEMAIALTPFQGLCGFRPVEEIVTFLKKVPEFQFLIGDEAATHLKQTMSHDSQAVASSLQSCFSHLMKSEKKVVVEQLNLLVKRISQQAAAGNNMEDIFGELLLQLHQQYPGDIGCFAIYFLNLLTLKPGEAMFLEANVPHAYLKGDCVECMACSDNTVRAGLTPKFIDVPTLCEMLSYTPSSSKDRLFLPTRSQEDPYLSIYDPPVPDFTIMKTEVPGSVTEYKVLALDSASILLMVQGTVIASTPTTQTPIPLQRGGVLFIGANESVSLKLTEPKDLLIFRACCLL

[12] = target: T4, Streptokinase A (Streptococcus pyogenes serotype M1, UniProt P10520); assay: viability-normalized secreted streptokinase activity reduction – plasminogen activation absorbance, OD405, dose response (AID 1914); assay type: functional, Streptococcus pyogenes M1 GAS;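 further: secreted streptokinase activity via plasminogen activation per viability signal from cell pellet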
T4 sequence (P10520 whole entry): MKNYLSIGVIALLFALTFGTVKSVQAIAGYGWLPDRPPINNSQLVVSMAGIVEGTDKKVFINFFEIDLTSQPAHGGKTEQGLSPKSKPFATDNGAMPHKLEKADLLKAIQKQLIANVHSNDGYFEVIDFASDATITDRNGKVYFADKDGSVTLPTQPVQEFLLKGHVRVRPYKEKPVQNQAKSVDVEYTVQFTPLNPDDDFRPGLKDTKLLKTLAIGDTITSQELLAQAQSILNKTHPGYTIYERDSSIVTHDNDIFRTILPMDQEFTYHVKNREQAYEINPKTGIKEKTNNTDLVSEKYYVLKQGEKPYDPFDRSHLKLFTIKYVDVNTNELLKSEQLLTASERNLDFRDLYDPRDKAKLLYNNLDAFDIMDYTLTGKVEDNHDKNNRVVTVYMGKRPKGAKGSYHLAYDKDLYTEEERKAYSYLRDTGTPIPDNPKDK

[13] = cells; assay type: functional
[14] = Trypanosoma cruzi growth suppression in host cells – NIH3T3 host cells, beta-gal luminescence, confirmation (AID 2044); assay type: functional, cell-based;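 further: intracellular parasites grown in NIH/3T3 mouse fibroblasts as host cells; luminescent beta-galactosidase reporter signal from transgenic T. cruzi replicating inside host cells; inhibitors lower the luminescence signal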
[15] = target: T5, Mitochondrial peptide methionine sulfoxide reductase (Bos taurus, UniProt P54149); assay: Absorbance-based biochemical high throughput dose response assay for activators of Methionine sulfoxide reductase A (MsrA).; assay type: functional
T5 sequence (P54149 whole entry): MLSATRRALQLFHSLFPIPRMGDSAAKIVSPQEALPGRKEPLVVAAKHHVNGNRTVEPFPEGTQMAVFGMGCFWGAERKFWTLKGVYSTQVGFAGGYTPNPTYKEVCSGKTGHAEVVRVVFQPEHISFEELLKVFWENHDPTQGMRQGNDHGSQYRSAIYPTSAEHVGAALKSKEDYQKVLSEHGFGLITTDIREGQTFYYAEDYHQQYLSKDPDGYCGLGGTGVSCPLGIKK

[16] = target: Eukaryotic translation initiation factor 4E (Mus musculus, UniProt P63073); assay: blockers of eIF4G binding by eIF4E – biochemical, TR-FRET, dose response (AID 855); assay type: functional;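 further: potency for disrupting eIF4E binding to eIF4GI seen as loss of FRET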
[17] = target: Beta Lactamase (Pseudomonas aeruginosa, UniProt Q932Y6); assay: BLA reporter interference, concentration series – BLA reporter cells, FRET fluorescence, artefact control for NOD2-RIPK2 interaction inhibitor project, dose response (AID 651552); assay type: functional, cell-based
[18] = target: T2, Polyadenylate-binding protein 1; assay: MLLE binding blockers, Cy5 peptide tracer – biochemical, fluorescence polarization, Cy5-PAM2 peptide, secondary, miRNA deadenylation inhibitor project, dose response (AID 602260); assay type: functional; details: read-out: IC50_Mean
[19] = target: Hexokinase (Trypanosoma brucei, UniProt Q38C41); assay: Confirmation assay for inhibitors of Trypanosoma brucei hexokinase 1-Analogue-first series. [Related pubchem assays (depositor defined):AID1430, AID1632, AID2516, AID2560, AID2579, AID2600, AID449725, AID492951]; assay type: functional
[20] = target: Glucose-6-phosphate 1-dehydrogenase (Homo sapiens, UniProt P11413); assay: inhibition of Homo sapiens G6PD, dose series – biochemical, fluorescence, selectivity assay for P. falciparum G6PD inhibitor project, dose response (AID 504792); assay type: functional
[21] = target: T3, Mannose-6-phosphate isomerase; assay: phosphomannose isomerase inhibition – biochemical, fluorescence intensity, confirmation (AID 1535)
[22] = test system: Streptococcus; assay: GAS UMAA2166 growth inhibition – luminescence, BacTiterGlo, counter-screen for streptokinase expression inhibitor project, dose response (AID 1915); assay type: functional, organism-based;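 further: potency for reduction of bacterial viability or growth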
[23] = test system: Streptococcus sp. 'group A'; assay: Streptococcus pyogenes SK(-)GAS viability under kanamycin – luminescence, BacTiterGlo, confirmation, counter-screen for streptokinase expression inhibitor project, dose response (AID 1900); assay type: functional, organism-based
[24] = Vero E6 cell cytotoxicity, dose response, cytotoxicity control for non-replicating M. tuberculosis project, secondary assay (AID 492998); assay type: functional, VeroE6; details: Vero C1008
[25] = target: DNA dC->dU-editing enzyme APOBEC-3G (Homo sapiens, UniProt Q9HC16); assay: Dose Response confirmation of small molecule APOBEC3G DNA Deaminase Inhibitors via a fluorescence-based single-stranded DNA deaminase assay. [Related pubchem assays (depositor defined):AID493012, AID493028]; assay type: functional
[26] = Fluorescence-based cell-based high throughput dose response assay for inhibitors of the interaction of nucleotide-binding oligomerization domain containing 2 (NOD2) and the receptor-interacting serine-threonine kinase 2 (RIPK2).; assay type: functional; details: Homo sapiens
[27] = target: Phosphoethanolamine/phosphocholine phosphatase (Homo sapiens, UniProt Q8TCT1); assay: SAR assay for compounds that inhibit PHOSPHO1. [Related pubchem assays (depositor defined):AID1545, AID1565, AID1574]
[28] = viability of PTEN-deleted HCT116 cells – cell-based, HCT116 PTEN knockout, dose response (AID 1047); assay type: functional;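 further: HCT116 colon tumor cells with PTEN knocked out; cells exposed to compound for 60 hours before readout; potency for loss of cell viability measured by luminescence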
[29] = THP-1 cell cytotoxicity, dose response, cytotoxicity control for non-replicating M. tuberculosis project (AID 489025); assay type: functional

T2 sequence (P11940 whole entry, the tested form may be a part): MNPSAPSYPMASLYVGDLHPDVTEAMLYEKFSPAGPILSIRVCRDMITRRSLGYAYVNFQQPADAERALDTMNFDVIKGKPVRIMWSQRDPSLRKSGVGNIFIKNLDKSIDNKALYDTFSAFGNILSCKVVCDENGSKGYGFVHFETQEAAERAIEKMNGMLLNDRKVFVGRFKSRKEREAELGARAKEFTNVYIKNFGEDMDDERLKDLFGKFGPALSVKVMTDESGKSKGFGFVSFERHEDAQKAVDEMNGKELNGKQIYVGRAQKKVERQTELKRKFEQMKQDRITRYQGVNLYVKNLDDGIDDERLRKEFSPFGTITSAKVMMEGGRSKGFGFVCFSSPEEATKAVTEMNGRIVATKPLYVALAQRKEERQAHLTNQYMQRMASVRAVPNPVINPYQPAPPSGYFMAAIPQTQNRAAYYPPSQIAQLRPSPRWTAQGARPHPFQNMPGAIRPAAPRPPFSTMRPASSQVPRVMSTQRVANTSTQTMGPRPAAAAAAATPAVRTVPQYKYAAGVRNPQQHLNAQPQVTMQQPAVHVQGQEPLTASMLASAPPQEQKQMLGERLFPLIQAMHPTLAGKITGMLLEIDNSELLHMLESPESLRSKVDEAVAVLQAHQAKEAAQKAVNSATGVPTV
Chain of DNA dC->dU-editing enzyme APOBEC-3G (Q9HC16 whole entry, the tested form may be a part): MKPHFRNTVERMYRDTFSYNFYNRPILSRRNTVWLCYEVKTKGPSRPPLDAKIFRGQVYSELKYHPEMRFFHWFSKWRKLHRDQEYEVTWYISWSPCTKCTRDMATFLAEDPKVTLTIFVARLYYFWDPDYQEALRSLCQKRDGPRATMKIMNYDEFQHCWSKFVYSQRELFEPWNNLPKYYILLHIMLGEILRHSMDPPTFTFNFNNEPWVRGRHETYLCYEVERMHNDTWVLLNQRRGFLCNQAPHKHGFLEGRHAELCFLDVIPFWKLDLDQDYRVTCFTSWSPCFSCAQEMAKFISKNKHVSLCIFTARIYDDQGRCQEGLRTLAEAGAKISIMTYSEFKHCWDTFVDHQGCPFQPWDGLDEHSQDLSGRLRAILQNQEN
Chain of DNA dC->dU-editing enzyme APOBEC-3A (P31941 whole entry): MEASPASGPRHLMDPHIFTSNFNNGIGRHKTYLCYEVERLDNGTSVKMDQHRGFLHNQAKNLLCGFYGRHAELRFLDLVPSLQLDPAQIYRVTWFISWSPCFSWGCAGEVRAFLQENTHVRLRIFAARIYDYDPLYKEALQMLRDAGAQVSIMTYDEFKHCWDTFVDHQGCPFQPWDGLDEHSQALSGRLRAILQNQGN
Chain of Cytochrome P450 2D6 (P10635 whole entry): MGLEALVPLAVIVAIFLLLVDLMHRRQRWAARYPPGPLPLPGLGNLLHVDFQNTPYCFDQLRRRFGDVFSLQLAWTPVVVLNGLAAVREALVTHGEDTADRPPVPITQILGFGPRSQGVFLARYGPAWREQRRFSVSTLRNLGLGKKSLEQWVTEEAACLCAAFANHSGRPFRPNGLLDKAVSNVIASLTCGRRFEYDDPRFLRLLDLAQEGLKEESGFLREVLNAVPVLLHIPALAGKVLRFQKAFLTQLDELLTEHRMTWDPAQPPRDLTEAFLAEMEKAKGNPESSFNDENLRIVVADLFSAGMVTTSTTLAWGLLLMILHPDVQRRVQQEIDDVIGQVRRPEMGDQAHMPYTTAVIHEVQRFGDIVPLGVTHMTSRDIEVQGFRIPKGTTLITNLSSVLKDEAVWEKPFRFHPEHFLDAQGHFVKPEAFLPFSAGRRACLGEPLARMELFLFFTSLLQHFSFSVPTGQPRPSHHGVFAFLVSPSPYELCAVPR
Chain of Glucose-6-phosphate 1-dehydrogenase (P11413 whole entry): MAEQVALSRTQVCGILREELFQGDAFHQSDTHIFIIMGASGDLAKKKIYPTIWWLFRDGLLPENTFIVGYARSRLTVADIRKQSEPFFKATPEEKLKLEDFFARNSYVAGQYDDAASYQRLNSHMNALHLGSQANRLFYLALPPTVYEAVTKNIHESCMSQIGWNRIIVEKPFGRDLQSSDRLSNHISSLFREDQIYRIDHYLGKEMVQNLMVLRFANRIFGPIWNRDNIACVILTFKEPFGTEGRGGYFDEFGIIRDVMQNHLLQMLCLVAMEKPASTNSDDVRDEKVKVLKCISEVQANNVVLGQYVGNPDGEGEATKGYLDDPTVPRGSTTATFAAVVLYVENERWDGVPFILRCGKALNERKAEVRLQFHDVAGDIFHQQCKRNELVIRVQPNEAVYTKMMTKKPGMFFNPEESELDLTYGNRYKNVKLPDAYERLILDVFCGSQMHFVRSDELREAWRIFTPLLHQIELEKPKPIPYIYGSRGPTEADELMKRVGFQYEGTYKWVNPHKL
Chain of Phosphoethanolamine/phosphocholine phosphatase (Q8TCT1 whole entry): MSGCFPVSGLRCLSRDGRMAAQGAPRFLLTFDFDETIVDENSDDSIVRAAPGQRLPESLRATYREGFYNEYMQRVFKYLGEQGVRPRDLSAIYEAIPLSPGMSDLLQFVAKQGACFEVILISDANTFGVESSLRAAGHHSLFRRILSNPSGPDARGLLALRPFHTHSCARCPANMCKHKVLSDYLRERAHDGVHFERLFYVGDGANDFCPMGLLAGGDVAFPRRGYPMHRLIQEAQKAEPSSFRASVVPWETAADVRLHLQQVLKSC
Chain of Dual specificity protein phosphatase 3 (P51452 whole entry): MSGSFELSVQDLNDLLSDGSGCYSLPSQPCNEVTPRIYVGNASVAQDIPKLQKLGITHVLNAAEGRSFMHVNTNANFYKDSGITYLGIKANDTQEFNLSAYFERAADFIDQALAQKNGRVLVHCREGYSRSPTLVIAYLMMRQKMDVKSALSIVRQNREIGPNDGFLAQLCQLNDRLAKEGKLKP
Chain of Cytochrome P450 2C19 (P33261 whole entry): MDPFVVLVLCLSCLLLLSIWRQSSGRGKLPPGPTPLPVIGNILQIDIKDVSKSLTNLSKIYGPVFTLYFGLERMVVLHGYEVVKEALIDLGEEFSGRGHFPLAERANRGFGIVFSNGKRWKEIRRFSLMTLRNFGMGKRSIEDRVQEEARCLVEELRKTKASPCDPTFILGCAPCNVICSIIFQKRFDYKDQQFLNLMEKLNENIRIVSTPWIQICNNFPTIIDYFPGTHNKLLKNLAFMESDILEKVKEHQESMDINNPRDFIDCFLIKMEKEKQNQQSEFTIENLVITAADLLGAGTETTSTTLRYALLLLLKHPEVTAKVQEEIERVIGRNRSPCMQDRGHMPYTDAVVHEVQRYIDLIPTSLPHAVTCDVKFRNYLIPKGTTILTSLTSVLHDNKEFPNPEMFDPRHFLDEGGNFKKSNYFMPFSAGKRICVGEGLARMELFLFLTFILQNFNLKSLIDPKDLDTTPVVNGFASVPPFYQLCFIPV
Chain of Beta Lactamase (Q932Y6 whole entry): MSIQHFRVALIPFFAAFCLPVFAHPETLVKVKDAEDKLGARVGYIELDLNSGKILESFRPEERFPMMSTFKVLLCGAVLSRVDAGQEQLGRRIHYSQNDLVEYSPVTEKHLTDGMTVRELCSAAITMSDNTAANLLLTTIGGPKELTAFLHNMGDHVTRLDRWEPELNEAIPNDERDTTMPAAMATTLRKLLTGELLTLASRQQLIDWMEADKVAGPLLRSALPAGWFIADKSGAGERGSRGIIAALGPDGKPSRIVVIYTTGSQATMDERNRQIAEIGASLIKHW
Chain of Hexokinase-1 (P19367 whole entry): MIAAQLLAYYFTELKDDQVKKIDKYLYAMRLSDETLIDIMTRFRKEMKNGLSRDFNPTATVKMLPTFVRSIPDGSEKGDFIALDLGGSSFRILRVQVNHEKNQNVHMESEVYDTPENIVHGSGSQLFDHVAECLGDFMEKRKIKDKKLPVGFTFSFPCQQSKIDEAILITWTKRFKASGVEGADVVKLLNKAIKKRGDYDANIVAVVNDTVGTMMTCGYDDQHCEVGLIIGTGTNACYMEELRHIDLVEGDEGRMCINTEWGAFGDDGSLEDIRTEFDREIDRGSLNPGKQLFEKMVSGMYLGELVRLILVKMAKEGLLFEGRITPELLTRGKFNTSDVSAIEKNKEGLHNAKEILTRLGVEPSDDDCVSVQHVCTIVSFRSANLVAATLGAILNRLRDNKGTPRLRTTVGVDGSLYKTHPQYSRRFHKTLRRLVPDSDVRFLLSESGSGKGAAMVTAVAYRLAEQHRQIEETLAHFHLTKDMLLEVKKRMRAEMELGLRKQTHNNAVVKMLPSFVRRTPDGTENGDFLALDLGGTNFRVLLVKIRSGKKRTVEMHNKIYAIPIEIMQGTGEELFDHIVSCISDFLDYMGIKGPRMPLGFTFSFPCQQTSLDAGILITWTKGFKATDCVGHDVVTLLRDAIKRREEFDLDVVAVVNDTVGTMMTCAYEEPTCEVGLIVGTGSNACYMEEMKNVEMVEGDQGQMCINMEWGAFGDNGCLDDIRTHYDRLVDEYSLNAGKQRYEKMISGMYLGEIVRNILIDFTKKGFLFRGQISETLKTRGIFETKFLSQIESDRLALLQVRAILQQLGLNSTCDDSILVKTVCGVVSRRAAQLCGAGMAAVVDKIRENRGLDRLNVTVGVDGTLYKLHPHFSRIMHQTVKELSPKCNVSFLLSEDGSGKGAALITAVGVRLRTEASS
Chain of Eukaryotic translation initiation factor 4E (P63073 whole entry): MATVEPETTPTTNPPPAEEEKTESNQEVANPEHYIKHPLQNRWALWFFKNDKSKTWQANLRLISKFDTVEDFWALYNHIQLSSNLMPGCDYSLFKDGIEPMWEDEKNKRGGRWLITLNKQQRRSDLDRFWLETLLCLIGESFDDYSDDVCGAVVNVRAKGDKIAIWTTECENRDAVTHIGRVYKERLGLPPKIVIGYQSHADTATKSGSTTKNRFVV

## Cc1ccc(Cl)cc1-n1c(=O)cc(N2CC(C)OC(C)C2)[nH]c1=O (centres undefined)
[1]
  AC50: inconclusive
[2]
  AC50: inconclusive

## COc1ccc(-c2nnc(Nc3nc4c(F)cccc4s3)o2)c(OC)c1
[3]
  IC50: 13.7 µM (active)

## CC(=O)NC1C(=O)N(CCN2CCOCC2)c2ccccc21 (centres undefined)
[4]
  IC50: > 80 µM (inactive)
[5]
  IC50: > 80 µM (inactive)

## C[C@@H]1CN([C@@H](C)CO)C(=O)c2cccc(NC(=O)Nc3ccccc3)c2O[C@H]1CN(C)S(=O)(=O)c1ccc(F)cc1
[6]
  AC50: 61.3 µM (active)

## O=c1c2ccccc2sn1-c1ccccc1
[7]
  IC50: > 66 µM (inactive)
[8]
  IC50: > 100 µM (inactive)
[9]
  EC50: 22.6 µM (active)
[10]
  AC50: 18.7 µM (active)
[11]
  IC50: 21 µM (active)
[12]
  EC50: > 150 µM (not active)
[13]
  IC50: 15.7 µM (active)
[14]
  EC50: 0.227 µM (active)
[15]
  EC50: 79.3 µM (inactive)
[16]
  IC50: 20.1 µM (active)
[17]
  IC50: 16.6 µM (inactive)
[18]
  IC50: > 66 µM (inactive)
[19]
  IC50: 1.11 µM (active)
[20]
  IC50: 8.87 µM (active)
[21]
  IC50: 6.65 µM (active)
[22]
  EC50: 4.17 µM (active)
[23]
  EC50: 0.888 µM (active)
[24]
  CC50: 13.4 µM (active)
[25]
  IC50: 6.4 µM (active)
[26]
  IC50: 4 µM (active)
[27]
  IC50: 0.941 µM (active)
[28]
  EC50: 41.1 µM (active)
[29]
  CC50: 10.9 µM (active)
